Test results as given in US8399502B2, “Analogs of indole-3-carbinol and their use as agents against infection” (priority 2008, dated 2013).
≈ marks a conversion by molar mass, not a printed value.

Key:
Assay in all cases: microbe, parasite or virus in culture
Assay type in all cases: cell-based
[1] = tested on: Francisella tularensis (FT; Gram-negative); conditions: read-out: MIC FT
[2] = tested on: Bacillus anthracis (BA; Gram-positive); conditions: read-out: MIC BA
[3] = tested on: methicillin-resistant Staphylococcus aureus (MRSA); conditions: read-out: MIC MRSA
[4] = tested on: penicillin-susceptible S. pneumoniae (PSSP); conditions: Streptococcus pneumoniae, read-out: MIC PSSP
[5] = tested on: Mycobacteruim tuberculosis H37Rv (H37Rv); conditions: Mycobacterium tuberculosis, read-out: MIC against Tubercle bacillus
[6] = tested on: Yersinia pestis (YP; Gram-negative); conditions: read-out: MIC YP
[7] = tested on: Brucella abortus (BAB; Gram-negative); conditions: read-out: MIC BAB
[8] = tested on: Burkholderia mallei (BM; Gram-negative); conditions: read-out: MIC BM
[9] = tested on: Burkholderia pseudomallei (BP; Gram-negative); conditions: read-out: MIC BP
[10] = tested on: methicillin-susceptible Staphylococcus aureus (MSSA); conditions: read-out: MIC MSSA
[11] = tested on: penicillin-resistant S. pneumoniae (PRSP); conditions: Streptococcus pneumoniae, read-out: MIC PRSP

Q: What does the source list for Cc1onc(-c2ccccc2)c1C(=O)N[C@@H]1C(=O)N2[C@@H]1SC(C)(C)[C@@H]2C(=O)O [Oxacillin, oxacillin, reference compound]?
A: MIC [1]: > 64 µg/mL; MIC [2]: 0.8 µg/mL (≈ 1.99 µM); MIC [3]: > 64 µg/mL; MIC [4]: 0.1 µg/mL (≈ 0.249 µM)

Q: Cc1c2[nH]c3ccccc3c2cc2c1[nH]c1ccccc12 [drawing 281] was tested. Which MIC [5] did it give?
A: 10 µg/mL (≈ 37 µM)

Q: What does the source list for Clc1ccc2[nH]c3c(OC4CCNC4)c4[nH]c5ccc(Cl)cc5c4cc3c2c1 (stereo not shown)?
A: MIC [1]: 0.25 to 1 µg/mL (≈ 0.609 to 2.44 µM); MIC [2]: 0.5 to 1 µg/mL (≈ 1.22 to 2.44 µM); MIC [6]: 1 µg/mL (≈ 2.44 µM); MIC [7]: 0.25 µg/mL (≈ 0.609 µM); MIC [8]: 2 µg/mL (≈ 4.87 µM); MIC [9]: 4 µg/mL (≈ 9.75 µM)

Q: CN(C)CC#Cc1c2[nH]c3ccc(F)cc3c2cc2c1[nH]c1ccc(F)cc12 [drawing 273] was tested. Which MIC [5] did it give?
A: 10 µg/mL (≈ 26.8 µM)

Q: Which results are given for Fc1ccc2[nH]c3c(O[C@@H]4CCNC4)c4[nH]c5ccc(F)cc5c4cc3c2c1 [drawing 253]?
A: MIC [1]: ≤ 0.25 µg/mL; MIC [2]: < 0.25 µg/mL; MIC [6]: 1 µg/mL (≈ 2.65 µM); MIC [7]: < 0.25 µg/mL; MIC [8]: 2 µg/mL (≈ 5.3 µM); MIC [9]: 4 µg/mL (≈ 10.6 µM)

Q: With N=C(N)NCCCOc1c2[nH]c3ccc(Cl)cc3c2cc2c1[nH]c1ccc(Cl)cc12 [drawing 274] as the compound, how does the MIC [5] read?
A: 10 µg/mL (≈ 22.7 µM)

Q: With CN(C)CCOc1c2[nH]c3ccc(F)cc3c2c(Br)c2c1[nH]c1ccc(F)cc12 as the compound, how does the MIC [1] read?
A: 0.25 µg/mL (≈ 0.545 µM)

Q: What about the MIC [2] of the same compound?
A: 0.25 µg/mL (≈ 0.545 µM)

Q: And the MIC [6]?
A: > 8 µg/mL

Q: What about the MIC [7] of the same compound?
A: 0.25 µg/mL (≈ 0.545 µM)

Q: What about the MIC [8] of the same compound?
A: > 8 µg/mL

Q: What about the MIC [9] of the same compound?
A: > 8 µg/mL

Q: CCOC(=O)Oc1c2[nH]c3ccccc3c2cc2c1[nH]c1ccccc12 was tested. Which MIC [1] did it give?
A: ≤ 0.5 µg/mL

Q: What about the MIC [2] of the same compound?
A: 4 µg/mL (≈ 11.6 µM)

Q: What about the MIC [10] of the same compound?
A: 4 µg/mL (≈ 11.6 µM)

Q: And the MIC [3]?
A: 4 µg/mL (≈ 11.6 µM)

Q: What about the MIC [4] of the same compound?
A: 4 µg/mL (≈ 11.6 µM)

Q: What about the MIC [11] of the same compound?
A: 2 µg/mL (≈ 5.81 µM)

Q: How did the MIC [1] turn out when c1ccc2c(Cc3[nH]c4ccccc4c3Cc3c[nH]c4ccccc34)c[nH]c2c1 was run?
A: 2 µg/mL (≈ 5.33 µM)

Q: And the MIC [2]?
A: 4 µg/mL (≈ 10.7 µM)

Q: And the MIC [10]?
A: 8 µg/mL (≈ 21.3 µM)

Q: And the MIC [3]?
A: 8 µg/mL (≈ 21.3 µM)

Q: What about the MIC [4] of the same compound?
A: 4 µg/mL (≈ 10.7 µM)

Q: And the MIC [11]?
A: 2 µg/mL (≈ 5.33 µM)

Q: What does the source list for OC1CCN(CCOc2c3[nH]c4ccc(F)cc4c3cc3c2[nH]c2ccc(F)cc23)CC1?
A: MIC [1]: 0.5 µg/mL (≈ 1.15 µM); MIC [2]: 0.5 µg/mL (≈ 1.15 µM); MIC [6]: 4 µg/mL (≈ 9.19 µM); MIC [7]: 1 µg/mL (≈ 2.3 µM); MIC [8]: 8 µg/mL (≈ 18.4 µM); MIC [9]: > 8 µg/mL

Q: For Clc1ccc2[nH]c3c(OCCC4CCNCC4)c4[nH]c5ccc(Cl)cc5c4cc3c2c1, which MIC [1] is on record?
A: 0.5 µg/mL (≈ 1.11 µM)

Q: And the MIC [2]?
A: ≤ 0.25 µg/mL

Q: What about the MIC [6] of the same compound?
A: 1 µg/mL (≈ 2.21 µM)

Q: What about the MIC [7] of the same compound?
A: ≤ 0.25 µg/mL

Q: What about the MIC [8] of the same compound?
A: 4 µg/mL (≈ 8.84 µM)

Q: And the MIC [9]?
A: > 8 µg/mL

Q: With Clc1ccc2[nH]c3c(OCCCNCc4ccc[nH]4)c4[nH]c5ccc(Cl)cc5c4cc3c2c1 as the compound, how does the MIC [1] read?
A: 0.5 µg/mL (≈ 1.05 µM)

Q: What about the MIC [2] of the same compound?
A: 0.5 µg/mL (≈ 1.05 µM)

Q: What about the MIC [6] of the same compound?
A: 2 µg/mL (≈ 4.19 µM)

Q: What about the MIC [7] of the same compound?
A: 0.5 µg/mL (≈ 1.05 µM)

Q: What about the MIC [8] of the same compound?
A: > 8 µg/mL

Q: And the MIC [9]?
A: > 8 µg/mL

Q: With c1ccc2c(Cc3c[nH]c4ccccc34)c[nH]c2c1 as the compound, how does the MIC [1] read?
A: 8 µg/mL (≈ 32.5 µM)

Q: And the MIC [2]?
A: > 64 µg/mL

Q: What about the MIC [10] of the same compound?
A: > 64 µg/mL

Q: And the MIC [3]?
A: > 64 µg/mL

Q: And the MIC [4]?
A: > 64 µg/mL

Q: And the MIC [11]?
A: 8 µg/mL (≈ 32.5 µM)

Q: With OC1CCN(CCCOc2c3[nH]c4ccc(Cl)cc4c3cc3c2[nH]c2ccc(Cl)cc23)CC1 [drawing 275] as the compound, how does the MIC [5] read?
A: 10 µg/mL (≈ 20.7 µM)

Q: For CC/N=C(/NCCCOc1c2[nH]c3ccc(F)cc3c2cc2c1[nH]c1ccc(F)cc12)NCCCN(C)C, which MIC [1] is on record?
A: ≤ 0.25 µg/mL

Q: And the MIC [2]?
A: ≤ 0.25 µg/mL

Q: And the MIC [6]?
A: 4 µg/mL (≈ 7.68 µM)

Q: What about the MIC [7] of the same compound?
A: 0.5 µg/mL (≈ 0.96 µM)

Q: What about the MIC [8] of the same compound?
A: 4 µg/mL (≈ 7.68 µM)

Q: What about the MIC [9] of the same compound?
A: 8 µg/mL (≈ 15.4 µM)

Q: What does the source list for CNCCOc1c2[nH]c3ccc(F)cc3c2cc2c1[nH]c1ccc(F)cc12?
A: MIC [1]: 0.5 µg/mL (≈ 1.37 µM); MIC [2]: 1 µg/mL (≈ 2.74 µM); MIC [6]: 8 µg/mL (≈ 21.9 µM); MIC [7]: 0.5 µg/mL (≈ 1.37 µM); MIC [8]: 4 µg/mL (≈ 10.9 µM); MIC [9]: 16 µg/mL (≈ 43.8 µM)

Q: COc1c2[nH]c3ccc(F)cc3c2c(N2CCCC2)c2c1[nH]c1ccc(F)cc12 was tested. Which MIC [1] did it give?
A: 0.5 µg/mL (≈ 1.28 µM)

Q: What about the MIC [2] of the same compound?
A: 1 µg/mL (≈ 2.55 µM)

Q: What about the MIC [6] of the same compound?
A: > 16 µg/mL

Q: What about the MIC [7] of the same compound?
A: 2 µg/mL (≈ 5.11 µM)

Q: And the MIC [8]?
A: > 16 µg/mL

Q: And the MIC [9]?
A: > 16 µg/mL

Q: OC1CCN(CCCOc2c3[nH]c4ccc(F)cc4c3cc3c2[nH]c2ccc(F)cc23)C1 (stereo not shown) was tested. Which MIC [1] did it give?
A: 0.5 µg/mL (≈ 1.15 µM)

Q: And the MIC [2]?
A: 0.5 µg/mL (≈ 1.15 µM)

Q: And the MIC [6]?
A: 8 µg/mL (≈ 18.4 µM)

Q: And the MIC [7]?
A: 0.251 µg/mL (≈ 0.576 µM)

Q: What about the MIC [8] of the same compound?
A: 8 µg/mL (≈ 18.4 µM)

Q: What about the MIC [9] of the same compound?
A: 8 µg/mL (≈ 18.4 µM)

Q: For Clc1ccc2[nH]c3c(O[C@@H]4CCNC4)c4[nH]c5ccc(Cl)cc5c4cc3c2c1, which MIC [1] is on record?
A: ≤ 0.25 µg/mL

Q: What about the MIC [2] of the same compound?
A: ≤ 0.25 µg/mL

Q: And the MIC [6]?
A: 1 µg/mL (≈ 2.44 µM)

Q: What about the MIC [7] of the same compound?
A: ≤ 0.25 µg/mL

Q: And the MIC [8]?
A: 2 µg/mL (≈ 4.87 µM)

Q: And the MIC [9]?
A: > 8 µg/mL

Q: Which MIC [5] does the source give for N=C(N)NCCCOc1c2[nH]c3ccc(F)cc3c2cc2c1[nH]c1ccc(F)cc12 [drawing 277] here?
A: 10 µg/mL (≈ 24.5 µM)

Q: For c1ccc2[nH]c(Cc3c[nH]c4ccccc34)cc2c1, which MIC [1] is on record?
A: 4 µg/mL (≈ 16.2 µM)

Q: What about the MIC [2] of the same compound?
A: 16 µg/mL (≈ 65 µM)

Q: And the MIC [10]?
A: 32 µg/mL (≈ 130 µM)

Q: And the MIC [3]?
A: 32 µg/mL (≈ 130 µM)

Q: What about the MIC [4] of the same compound?
A: 8 µg/mL (≈ 32.5 µM)

Q: And the MIC [11]?
A: 1 µg/mL (≈ 4.06 µM)

Q: How did the MIC [5] turn out when Fc1ccc2[nH]c3c(O[C@@H]4CCNC4)c4[nH]c5ccc(F)cc5c4cc3c2c1 [drawing 279] was run?
A: 10 µg/mL (≈ 26.5 µM)
